The source of these data is ChEMBL document CHEMBL1201862, “PubChem BioAssay data set” (2004).

Among the test systems are DLD-1; DMS-273; HOP-18; SNB-78; BT-549; MDA-N; LXFL 529; RXF 631.
Holding throughout (test): NCI-60 cell line screen, 48 h

SMILES strings stand for the structures. Values joined by “and” are separate entries in the source; they are usually repeats but may differ in a detail not shown here. Equal entries are not always repeated.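 Tested at 5 concentrations; 48 h exposure; 96-well plates; endpoints linearly interpolated, else capped at highest concentration. Here, GI50 denotes the concentration required for 50% inhibition of growth.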 Active and inactive are the calls of the source. Cut-off read from the data, not from the text of the source: active = GI50 up to about 1.1 µM and inactive = higher. Non-standard residues stand in square brackets, D forms with d. Residues, ends and D or L forms follow the SMILES beside them. ξ: configuration not given here. *: point of attachment. ξF = NC(Cc1ccccc1)C(=O)O; Cbz = O=C(OCc1ccccc1)*; Aib = CC(C)(N)C(=O)O

For the molecule `Nc1ccn(C2OC(COP(=O)(O)Oc3ccccc3)C(O)C2O)c(=O)n1` (centres undefined), the GI50 was > 100 µM (inactive) in the test with DLD-1, 18.4 µM (inactive) in the test on DMS-273, > 74.5 µM (inactive) in the test with HOP-18 and > 100 µM (inactive) with SNB-78.

`COc1ccc(N2NC(c3ccccc3)(c3ccccc3)C(C)C2=O)cc1` (centres undefined): the GI50 in the test on BT-549 is > 100 µM (inactive); in the test with MDA-N, 39.1 µM (inactive).

Regarding `CN1C(=O)c2ccccc2NC(=O)c2cnn(C)c21`, the GI50 with DLD-1, in the test on DMS-273, in the test with HOP-18 and in the test with SNB-78 was > 100 µM (inactive) throughout.

For `C/C(CCOC1CCCCO1)=C(\C)[Si](C)(C)C` (centres undefined), the GI50 in the test on DLD-1, with LXFL 529 and with SNB-78 was > 100 µM (inactive) throughout.

`c1cc(CNC2C3CCC(C3)C2c2c[nH]c3ccccc23)cc(CNC2C3CCC(C3)C2c2c[nH]c3ccccc23)c1` (centres undefined): the GI50 in the test on BT-549 was 1.73 µM (inactive) and 1.75 µM (inactive).

Consider `COc1ccc(N2C(=O)C(=O)C3(CCCCC3)C2=O)c2ccccc12`, for which the GI50 with MDA-N was > 10 µM (inactive).

Regarding `C[n+]1cccc2c(=O)c3ccccc3oc21`, the GI50 with MDA-N was > 100 µM (inactive).

`C=CCCCC12CCCc3cccc(c31)NC2=O` (centres undefined): the results for the GI50 in the test with DLD-1 and with RXF 631 were 19.6 µM (inactive) and 20.6 µM (inactive), respectively.

As to `COc1ccc(-n2cnnc2-c2nsc3ccccc23)cc1`, the GI50 in the test with DMS-273 is 44.7 µM (inactive); in the test on HOP-18 it was 36.6 µM (inactive); with LXFL 529, > 100 µM (inactive); in the test on SNB-78 it was > 100 µM (inactive).

Regarding `O=c1[nH]c(=S)[nH]c2c(C3OC(CO)C(O)C3O)nsc12` (centres undefined), the GI50 in the test with BT-549 and in the test with MDA-N was > 100 µM (inactive) throughout.

On to `CCOC(=O)CNC(=O)C(Cc1ccccc1)NC(=O)C(C)(C)NC(=O)OCc1ccccc1` (centres undefined) (Cbz-[Aib]-[ξF]-Gly-OEt), for which the GI50 with MDA-N is > 100 µM (inactive).

Consider `COC1=CC(=O)c2c(c(O)c3oc4cc(OC)cc(C)c4c(=O)c3c2O)C1=O` [BIKAVERIN], for which the GI50 is 1.8 µM (inactive) with DLD-1, 0.759 µM (active) in the test with DMS-273, 0.906 µM (active) with HOP-18 and 3.41 µM (inactive) in the test on SNB-78.
